Where only a bound is given, the exact number is not on record here.

The values below come from patent US11535630B2, “Apelin receptor (APJ) agonists and uses thereof” (Research Triangle Institute, priority 2015, dated 2022).

For the first assay, the target named is T1, apelin receptor (APJ) (Homo sapiens, UniProt P35414).
T1 sequence (P35414 1-380): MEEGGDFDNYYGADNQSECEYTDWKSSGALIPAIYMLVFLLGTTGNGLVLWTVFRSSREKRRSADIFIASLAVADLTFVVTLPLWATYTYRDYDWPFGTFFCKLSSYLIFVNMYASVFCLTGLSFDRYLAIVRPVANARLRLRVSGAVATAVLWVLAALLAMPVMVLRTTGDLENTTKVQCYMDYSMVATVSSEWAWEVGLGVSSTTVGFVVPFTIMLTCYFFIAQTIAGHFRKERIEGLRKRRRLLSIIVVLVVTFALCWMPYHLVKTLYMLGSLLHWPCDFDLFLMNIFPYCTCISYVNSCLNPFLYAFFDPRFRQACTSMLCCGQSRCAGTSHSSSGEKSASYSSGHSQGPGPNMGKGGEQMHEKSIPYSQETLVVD
Put plainly: In vitro apelin agonist activity (methods of Giddings et al., Apelin-13 as positive control). The class given is cell-based. The note with it: EC50 (nM) Ave, in vitro apelin agonist activity, methods of Giddings et al., Apelin-13 as positive control. The source says: Characterization of the Apelin Agonist Activity of the Compounds
1:39-47, the contents of which are hereby incorporated by reference in its entirety. Using the methods described in Giddings et al. and Apelin-13 as a positive control.
Compound `COc1cccc(OC)c1-c1cc(C(=O)N[C@@H](CCc2ccccc2)C(=O)O)nn1CC(C)C` [compound 311, (2S)-2-{[5-(2,6-dimethoxyphenyl)-1-(2-methylpropyl)-1H-pyrazol-3-yl]formamido}-4-phenylbutanoic acid] came in with a 50% effective concentration (EC50) of more than 10000 nM.

The same assay, now with this note: in vitro apelin agonist activity, methods of Giddings et al., Apelin-13 as positive control; read-out: EC50 (nM) Ave.
`C[C@H](C[C@@H](CC(=O)O)NC(=O)c1cc(-c2ccccc2C(C)(F)F)n(C2CCCC2)n1)N1C[C@@H](F)[C@H](F)C1` (mixture of isomers) [compound 599, (3S,5R)-3-({1-cyclopentyl-5-[2-(1,1-difluoroethyl)phenyl]-1H-pyrazol-3-yl}formamido)-5-[trans-3,4-difluoropyrrolidin-1-yl]hexanoic acid]: the EC50 is 24 nM.
In the case of `CC(F)(F)c1ccccc1-c1cc(C(=O)N[C@@H](CCN2C[C@H](F)[C@@H](F)C2)CC(=O)O)nn1C1CCCC1` (stereo in doubt) [compound 594, (3S)-3-({1-cyclopentyl-5-[2-(1,1-difluoroethyl)phenyl]-1H-pyrazol-3-yl}formamido)-5-[trans-3,4-difluoropyrrolidin-1-yl]pentanoic acid], the EC50 was 44 nM.
The same measure, in the same setting: under `COc1cccc(OC)c1-c1cc(C(=O)N[C@H](CC(=O)O)Cc2ccccc2)nn1CC(C)C` [compound 297, (3S)-3-{[5-(2,6-dimethoxyphenyl)-1-(2-methylpropyl)-1H-pyrazol-3-yl]formamido}-4-phenylbutanoic acid] stands more than 10000 nM; under `COc1cccc(OC)c1-c1cc(C(=O)N[C@@H](CCc2ccccc2)CC(=O)O)nn1-c1ccc(F)cc1` [compound 299, (3S)-3-{[5-(2,6-dimethoxyphenyl)-1-(4-fluorophenyl)-1H-pyrazol-3-yl]formamido}-5-phenylpentanoic acid], 2910 nM.
Regarding `COc1cccc(OC)c1-c1cc(C(=O)N[C@H](CC(=O)O)c2ccccc2)nn1CC(C)C` [compound 300, (3R)-3-{[5-(2,6-dimethoxyphenyl)-1-(2-methylpropyl)-1H-pyrazol-3-yl]formamido}-3-phenylpropanoic acid], the EC50 is more than 10000 nM.
As to `COc1cccc(OC)c1-c1cc(C(=O)N[C@@H](CCCC2CCCCC2)CC(=O)O)nn1CC(C)C` [compound 301, (3S)-6-cyclohexyl-3-{[5-(2,6-dimethoxyphenyl)-1-(2-methylpropyl)-1H-pyrazol-3-yl]formamido}hexanoic acid], the EC50 was 2590 nM.
Regarding `COc1cccc(OC)c1-c1cc(C(=O)N[C@@H](Cc2ccccc2)C(=O)NC2CCC2)nn1CC(C)C` [compound 302, (2S)-N-cyclobutyl-2-{[5-(2,6-dimethoxyphenyl)-1-(2-methylpropyl)-1H-pyrazol-3-yl]formamido}-3-phenylpropanamide], the EC50 was more than 10000 nM.
On the same count and under the same terms, under `COc1cccc(OC)c1-c1cc(C(=O)N[C@@H](CCN2CCOCC2)CC(=O)OC(C)(C)C)nn1C1CCCC1` [compound 303, tert-butyl (3S)-3-{[1-cyclopentyl-5-(2,6-dimethoxyphenyl)-1H-pyrazol-3-yl]formamido}-5-(morpholin-4-yl)pentanoate] stands more than 10000 nM.
Still for that read-out and setting: as for `COc1cccc(OC)c1-c1cc(C(=O)N[C@@H](CCN2CCN(C)CC2)CC(=O)OC(C)(C)C)nn1C1CCCC1` [compound 304, tert-butyl (3S)-3-{[1-cyclopentyl-5-(2,6-dimethoxyphenyl)-1H-pyrazol-3-yl]formamido}-5-(4-methylpiperazin-1-yl)pentanoate], the figure is more than 10000 nM.
Still for that read-out and setting: under `CCN(CC)CC[C@@H](CC(=O)OC(C)(C)C)NC(=O)c1cc(-c2c(OC)cccc2OC)n(C2CCCC2)n1` [compound 305, tert-butyl (3S)-3-{[1-cyclopentyl-5-(2,6-dimethoxyphenyl)-1H-pyrazol-3-yl]formamido}-5-(diethylamino)pentanoate] stands more than 10000 nM; under `COc1cccc(OC)c1-c1cc(C(=O)N[C@@H](CCNCc2ccncc2)CC(=O)OC(C)(C)C)nn1C1CCCC1` [compound 306, tert-butyl (3S)-3-{[1-cyclopentyl-5-(2,6-dimethoxyphenyl)-1H-pyrazol-3-yl]formamido}-5-[(pyridin-4-ylmethyl)amino]pentanoate], more than 10000 nM.
Take `COc1cccc(OC)c1-c1cc(C(=O)N[C@@H](CCN2CCN(C)CC2)CC(=O)O)nn1C1CCCC1` [compound 308, (3S)-3-{[1-cyclopentyl-5-(2,6-dimethoxyphenyl)-1H-pyrazol-3-yl]formamido}-5-(4-methylpiperazin-1-yl)pentanoic acid]: the EC50 was more than 10000 nM.
Same read-out and setting: as for `COc1cccc(OC)c1-c1cc(C(=O)N[C@@H](CCNCc2ccncc2)CC(=O)O)nn1C1CCCC1` [compound 310, (3S)-3-{[1-cyclopentyl-5-(2,6-dimethoxyphenyl)-1H-pyrazol-3-yl]formamido}-5-[(pyridin-4-ylmethyl)amino]pentanoic acid], the figure is more than 10000 nM.
As for `COc1cccc(OC)c1-c1cc(C(=O)N[C@@H](CCN2CCOCC2)CC(=O)NC2CCC2)nn1C1CCCC1` [compound 312, (3S)-N-cyclobutyl-3-{[1-cyclopentyl-5-(2,6-dimethoxyphenyl)-1H-pyrazol-3-yl]formamido}-5-(morpholin-4-yl)pentanamide], the EC50 was 343 nM.
Take `CCN(CC)CC[C@@H](CC(=O)NC1CCC1)NC(=O)c1cc(-c2c(OC)cccc2OC)n(C2CCCC2)n1` [compound 314, (3S)-N-cyclobutyl-3-{[1-cyclopentyl-5-(2,6-dimethoxyphenyl)-1H-pyrazol-3-yl]formamido}-5-(diethylamino)pentanamide]: the concentration giving a half-maximal response (EC50) is 1840 nM.
The same measure, in the same setting: under `COc1cccc(OC)c1-c1cc(C(=O)N[C@H]2CCN(Cc3ccncc3)C(=O)C2)nn1C1CCCC1` [compound 315, 1-cyclopentyl-5-(2,6-dimethoxyphenyl)-N-[(4S)-2-oxo-1-(pyridin-4-ylmethyl)piperidin-4-yl]-1H-pyrazole-3-carboxamide] stands more than 10000 nM; under `COc1cccc(OC)c1-c1cc(C(=O)N[C@@H](CCN2CCCC2)CC(=O)OC(C)(C)C)nn1C1CCCC1` [compound 316, tert-butyl (3S)-3-{[1-cyclopentyl-5-(2,6-dimethoxyphenyl)-1H-pyrazol-3-yl]formamido}-5-(pyrrolidin-1-yl)pentanoate], more than 10000 nM; under `COc1cccc(OC)c1-c1cc(C(=O)N[C@@H](CCN2CCCCCC2)CC(=O)OC(C)(C)C)nn1C1CCCC1` [compound 319, tert-butyl (3S)-5-(azepan-1-yl)-3-{[1-cyclopentyl-5-(2,6-dimethoxyphenyl)-1H-pyrazol-3-yl]formamido}pentanoate], 3510 nM.
As for `COc1cccc(OC)c1-c1cc(C(=O)N[C@@H](CCN2C3CCC2CC3)CC(=O)OC(C)(C)C)nn1C1CCCC1` [compound 320, tert-butyl (3S)-5-{7-azabicyclo[2.2.]heptan-7-yl}-3-{[1-cyclopentyl-5-(2,6-dimethoxyphenyl)-1H-pyrazol-3-yl]formamido}pentanoate], the EC50 is more than 10000 nM.
Consider `COc1cccc(OC)c1-c1cc(C(=O)N[C@H](CC(=O)NC2CCC2)Cc2ccccc2)nn1CC(C)C` [compound 321, (3S)-N-cyclobutyl-3-{[5-(2,6-dimethoxyphenyl)-1-(2-methylpropyl)-1H-pyrazol-3-yl]formamido}-4-phenylbutanamide], for which the EC50 was 114 nM.
On the same count and under the same terms, as for `COc1cccc(OC)c1-c1cc(C(=O)N[C@@H](CCN2CCCCCC2)CC(=O)NC2CCC2)nn1C1CCCC1` [compound 324, (3S)-5-(azepan-1-yl)-N-cyclobutyl-3-{[1-cyclopentyl-5-(2,6-dimethoxyphenyl)-1H-pyrazol-3-yl]formamido}pentanamide], the figure is 107 nM.
On the same count and under the same terms, as for `COc1cccc(OC)c1-c1cc(C(=O)N[C@@H](CCN2C(C)CCCC2C)CC(=O)NC2CCC2)nn1C1CCCC1` (stereo partly drawn) [compound 329, (3S)-N-cyclobutyl-3-{[1-cyclopentyl-5-(2,6-dimethoxyphenyl)-1H-pyrazol-3-yl]formamido}-5-(2,6-dimethylpiperidin-1-yl)pentanamide], the figure is 170 nM; as for `COc1cccc(OC)c1-c1cc(C(=O)N[C@@H](CCN2CCCCC2)CC(=O)N(C)C2CCC2)nn1C1CCCC1` [compound 331, (3S)-N-cyclobutyl-3-{[1-cyclopentyl-5-(2,6-dimethoxyphenyl)-1H-pyrazol-3-yl]formamido}-N-methyl-5-(piperidin-1-yl)pentanamide], 353 nM.
`COc1cccc(OC)c1-c1cc(C(=O)N[C@@H](CCN2CCCCC2)CC(=O)NC2CCOCC2)nn1C1CCCC1` [compound 332, (3S)-3-{[1-cyclopentyl-5-(2,6-dimethoxyphenyl)-1H-pyrazol-3-yl]formamido}-N-(oxan-4-yl)-5-(piperidin-1-yl)pentanamide]: the EC50 is 391 nM.
For the compound `COc1cccc(OC)c1-c1cc(C(=O)N[C@@H](CCN2CCCCC2)CC(=O)NC(C)(C)C)nn1C1CCCC1` [compound 333, (3S)-N-tert-butyl-3-{[1-cyclopentyl-5-(2,6-dimethoxyphenyl)-1H-pyrazol-3-yl]formamido}-5-(piperidin-1-yl)pentanamide], the 50% effective concentration (EC50) worked out at 2530 nM.
As for `COCCN(C)C(=O)C[C@H](CCN1CCCCC1)NC(=O)c1cc(-c2c(OC)cccc2OC)n(C2CCCC2)n1` [compound 334, (3S)-3-{[1-cyclopentyl-5-(2,6-dimethoxyphenyl)-1H-pyrazol-3-yl]formamido}-N-(2-methoxyethyl)-N-methyl-5-(piperidin-1-yl)pentanamide], the EC50 is 6570 nM.

In general, EC50 refers to the midpoint of the concentration-response curve.
